*1 amine or outer side, *2 acyl side, *3 side chain or, on linkers, in order; H or OH if unused. Where a SMILES comes first, the peptide text is derived from it. Bridges are numbered along the chain shown (N, C = ends). [ ]: non-standard residue; d: D form. The star is where a group is joined. Ala(piperidin-4-yl) = O=C([C@H](CC1CCN([*:3])CC1)N[*:1])[*:2]; DOTA = O=C(O)CN1CCN(CC(=O)O)CCN(CC(=O)*)CCN(CC(=O)O)CC1; Trp(7-aza) = N[C@@H](Cc1c[nH]c2ncccc12)C(=O)O; 2Nal = N[C@@H](Cc1ccc2ccccc2c1)C(=O)O; Gly(4-THP) = N[C@H](C(=O)O)C1CCOCC1; Nva(3-Et) = CCC(CC)[C@H](N)C(=O)O; tBuAla = CC(C)(C)C[C@H](N)C(=O)O; AllylGly = C=CC[C@H](N)C(=O)O; Chg = N[C@H](C(=O)O)C1CCCCC1; Aze = O=C(O)[C@@H]1CCN1; Dap = NC[C@H](N)C(=O)O; CH2 = C([*:1])[*:2]
biological target: T1, DLL3 (Homo sapiens, UniProt Q9NYJ7); test: SPR KD, biotinylated human DLL3 on streptavidin chip (Table 8); set-up: biotin (biotinylated); settings: biotinylated human DLL3 on streptavidin sensor chip, 25° C., 1:1 binding model; read-out: SPR KD
T1 sequence (Q9NYJ7 27-618): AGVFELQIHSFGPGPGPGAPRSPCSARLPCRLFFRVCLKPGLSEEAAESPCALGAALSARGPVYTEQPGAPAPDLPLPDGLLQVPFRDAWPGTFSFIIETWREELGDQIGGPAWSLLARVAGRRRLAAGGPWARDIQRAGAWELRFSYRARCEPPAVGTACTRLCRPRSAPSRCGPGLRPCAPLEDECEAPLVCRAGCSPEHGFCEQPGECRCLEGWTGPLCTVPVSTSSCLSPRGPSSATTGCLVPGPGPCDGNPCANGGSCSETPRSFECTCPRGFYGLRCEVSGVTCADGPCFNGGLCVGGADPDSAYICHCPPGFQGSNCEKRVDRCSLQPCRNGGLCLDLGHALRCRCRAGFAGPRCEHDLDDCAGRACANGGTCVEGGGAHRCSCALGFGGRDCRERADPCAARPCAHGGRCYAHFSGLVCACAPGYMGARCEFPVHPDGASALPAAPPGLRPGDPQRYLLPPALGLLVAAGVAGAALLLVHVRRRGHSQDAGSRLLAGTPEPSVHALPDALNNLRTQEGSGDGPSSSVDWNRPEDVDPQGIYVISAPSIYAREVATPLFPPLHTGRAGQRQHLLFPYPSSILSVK
Source text: Biotinylated target ligand human DLL3 was immobilized on a streptavidin sensor chip. A reference surface was set up for nonspecific binding and refractive index changes. […] Sensorgram curves were fitted with 1:1 binding model, and affinity and kinetic parameters were obtained using Biacore Insight evaluation 4.0. software.

Row | SMILES | Kd [nM]
1 | CC[C@H](C)[C@H](NC(=O)[C@@H](NC(=O)[C@H](Cc1ccc2ccccc2c1)NC(C)=O)[C@@H](C)O)C(=O)N[C@H]1CSSC[C@@H](C(=O)N[C@@H](Cc2c[nH]c3ccccc23)C(=O)N2CCC[C@H]2C(N)=O)NC(=O)[C@H](CC(=O)O)NC(=O)[C@H](Cc2cnc[nH]2)NC(=O)[C@H](Cc2c[nH]c3ccccc23)NC(=O)[C@H](CC(N)=O)NC(=O)[C@H](CC(N)=O)NC1=O [compound 26, Ac-(2Nal)-T-I-C(3)-N-N-W-H-D-C(3)-W-P-CONH2] (Ac-[2Nal]TICNNWHDCWP-NH2; disulfide 4-10) | 10 to 100
2 | CC[C@H](C)[C@H](NC(=O)[C@@H](NC(=O)[C@H](Cc1c[nH]c2ccccc12)NC(=O)[C@H](CCSC)NC(C)=O)[C@@H](C)O)C(=O)N[C@H]1CSSC[C@@H](C(=O)N[C@@H](Cc2c[nH]c3ccccc23)C(=O)N2CCC[C@H]2C(N)=O)NC(=O)[C@H](CC(=O)O)NC(=O)[C@H](C)NC(=O)[C@H](Cc2c[nH]c3ccccc23)NC(=O)[C@H](CC(N)=O)NC(=O)[C@H](CC(N)=O)NC1=O [compound 36, Ac-M-W-T-I-C(3)-N-N-W-(L-Ala)-D-C(3)-W-P-CONH2] (Ac-MWTICNNWADCWP-NH2; disulfide 5-11) | 10 to 100
3 | CC[C@H](C)[C@H](NC(=O)[C@@H](NC(=O)[C@H](Cc1c[nH]c2ccccc12)NC(=O)[C@H](CCSC)NC(C)=O)[C@@H](C)O)C(=O)N[C@H]1CSCSC[C@@H](C(=O)N[C@@H](Cc2c[nH]c3ccccc23)C(=O)N2CCC[C@H]2C(N)=O)NC(=O)[C@H](CC(=O)O)NC(=O)[C@H](Cc2cnc[nH]2)NC(=O)[C@H](Cc2c[nH]c3ccccc23)NC(=O)[C@H](CC(N)=O)NC(=O)[C@H](CC(N)=O)NC1=O [compound 32, Ac-M-W-T-I-C(1)-N-N-W-H-D-C(1)-W-P-CONH2] (Ac-MWTICNNWHDCWP-NH2; linker 5-11 via CH2) | 10 to 100
4 | CC[C@H](C)[C@H](NC(=O)[C@@H](NC(=O)[C@H](Cc1c[nH]c2ccccc12)NC(C)=O)[C@@H](C)O)C(=O)N[C@H]1CSSC[C@@H](C(=O)N[C@@H](Cc2c[nH]c3ccccc23)C(=O)N2CCC[C@H]2C(N)=O)NC(=O)[C@H](CC(=O)O)NC(=O)[C@H](CCCCNC(=O)CN2CCN(CC(=O)O)CCN(CC(=O)O)CCN(CC(=O)O)CC2)NC(=O)[C@H](Cc2ccc3ccccc3c2)NC(=O)[C@H](CC(N)=O)NC(=O)[C@H](CC(N)=O)NC1=O [compound 254] (Ac-WTICNN[2Nal]K(DOTA)DCWP-NH2; disulfide 4-10) | < 1
5 | CC[C@H](C)[C@H](NC(=O)[C@@H](NC(=O)[C@H](Cc1c[nH]c2ccccc12)NC(C)=O)[C@@H](C)O)C(=O)N[C@H]1CC(=O)NC[C@@H](C(=O)N[C@@H](Cc2c[nH]c3ccccc23)C(=O)N2CCC[C@H]2C(N)=O)NC(=O)[C@H](CC(=O)O)NC(=O)[C@H](Cc2c[nH]cn2)NC(=O)[C@H](Cc2c[nH]c3ccccc23)NC(=O)[C@H](CC(N)=O)NC(=O)[C@H](CC(N)=O)NC1=O [compound 120, Ac-W-T-I-(L-Asp)*-N-N-W-H-D-(L-Dap)*-W-P-CONH2 (* denotes lactam between side chains between L-Asp and L-Dap)] (Ac-WTIDNNWHD[Dap]WP-NH2; lactam 4-10) | 100 to 300
6 | CC[C@H](C)[C@H](NC(=O)[C@@H](NC(=O)[C@H](Cc1c[nH]c2ccccc12)NC(C)=O)[C@@H](C)O)C(=O)N[C@H]1CSSC[C@@H](C(=O)N[C@@H](Cc2c[nH]c3ccccc23)C(=O)N2CCC[C@H]2C(N)=O)NC(=O)[C@H](CC(=O)O)NC(=O)[C@H](Cc2c[nH]cn2)NC(=O)[C@H](Cc2c[nH]c3ncccc23)NC(=O)[C@H](CC(N)=O)NC(=O)[C@H](CC(N)=O)NC1=O [compound 33, Ac-W-T-I-C(3)-N-N-(7Aza-W)-H-D-C(3)-W-P-CONH2] (Ac-WTICNN[Trp(7-aza)]HDCWP-NH2; disulfide 4-10) | 10 to 100

The remaining lines, values ahead:

Row | Kd [nM] | SMILES
7 | < 1 | CC(=O)NCCCC[C@@H](NC(=O)[C@@H]1CCCN1C(=O)[C@H](Cc1c[nH]c2ccccc12)NC(=O)[C@@H]1CSCSC[C@H](NC(=O)[C@H](CC(C)(C)C)NC(=O)[C@@H](NC(=O)[C@H](Cc2c[nH]c3ccccc23)NC(C)=O)[C@@H](C)O)C(=O)N[C@@H](CC2CCNCC2)C(=O)N[C@@H](CC(N)=O)C(=O)N[C@@H](Cc2ccc3ccccc3c2)C(=O)N[C@@H](CCCCNC(=O)CN2CCN(CC(=O)O)CCN(CC(=O)O)CCN(CC(=O)O)CC2)C(=O)N[C@@H](CC(=O)O)C(=O)N1)C(=O)O [compound 439, Ac-W-T-(t-Bu-Ala)-C(1)-[3-(4-piperidinyl)-Ala]-N-(2Nal)-Lys(DOTA)-D-C(1)-W-P-[D-Lys(Ac)]-COOH] (Ac-WT[tBuAla]C[Ala(piperidin-4-yl)]N[2Nal]K(DOTA)DCWP[dK](Ac)-OH; linker 4-10 via CH2)
8 | < 1 | CC[C@@H](C)[C@H](NC(=O)[C@@H](NC(=O)[C@H](Cc1c[nH]c2ccccc12)NC(C)=O)[C@@H](C)O)C(=O)N[C@H]1CSSC[C@@H](C(=O)N[C@@H](Cc2c[nH]c3ccccc23)C(=O)N2CCC[C@H]2C(N)=O)NC(=O)[C@H](CC(=O)O)NC(=O)[C@H](CCCCNC(=O)CN2CCN(CC(=O)O)CCN(CC(=O)O)CCN(CC(=O)O)CC2)NC(=O)[C@H](Cc2ccc3ccccc3c2)NC(=O)[C@H](CC(N)=O)NC(=O)C(CN2CCOCC2)NC1=O (single isomer, unassigned) [compound 312, Ac-W-T-(Allo-Ile)-C(3)-[3-(1-morpholinyl)-Ala]-N-(2Nal)-Lys(DOTA)-D-C(3)-W-P-CONH2]
9 | 1 to 10 | CC[C@H](C)[C@H](NC(=O)[C@@H](NC(=O)[C@H](Cc1c[nH]c2ccccc12)NC(C)=O)[C@@H](C)O)C(=O)N[C@H]1CSSC[C@@H](C(=O)N[C@@H](Cc2c[nH]c3ccccc23)C(=O)N2CC[C@H]2C(N)=O)NC(=O)[C@H](CC(=O)O)NC(=O)[C@H](Cc2cnc[nH]2)NC(=O)[C@H](Cc2c[nH]c3ccccc23)NC(=O)[C@H](CC(N)=O)NC(=O)[C@H](CC(N)=O)NC1=O [compound 335, Ac-W-T-I-C(3)-N-N-W-H-D-C(3)-W-(Aze)-CONH2] (Ac-WTICNNWHDCW[Aze]-NH2; disulfide 4-10)
10 | 100 to 300 | CC[C@H](C)[C@H](NC(=O)[C@@H](NC(=O)[C@H](Cc1c[nH]c2ccccc12)NC(C)=O)[C@@H](C)O)C(=O)N[C@H]1CC=CC[C@@H](C(=O)N[C@@H](Cc2c[nH]c3ccccc23)C(=O)N2CCC[C@H]2C(N)=O)NC(=O)[C@H](CC(=O)O)NC(=O)[C@H](Cc2cnc[nH]2)NC(=O)[C@H](Cc2c[nH]c3ccccc23)NC(=O)[C@H](CC(N)=O)NC(=O)[C@H](CC(N)=O)NC1=O [compound 331] (Ac-WTI[AllylGly]NNWHD[AllylGly]WP-NH2; staple 4-10)
11 | < 1 | CC(=O)N[C@@H](Cc1c[nH]c2ccccc12)C(=O)N[C@H](C(=O)N[C@H](C(=O)N[C@H]1CSSC[C@@H](C(=O)N[C@@H](Cc2c[nH]c3ccccc23)C(=O)N2CCC[C@H]2C(N)=O)NC(=O)[C@H](C)NC(=O)[C@@H](CCCCNC(=O)CN2CCN(CC(=O)O)CCN(CC(=O)O)CCN(CC(=O)O)CC2)NC(=O)[C@H](Cc2ccc3ccccc3c2)NC(=O)[C@H](CC(N)=O)NC(=O)[C@H](CC2CCNCC2)NC1=O)C1CCOCC1)[C@@H](C)O [compound 327, Ac-W-T-(THPG)-C(3)-[3-(4-piperidinyl)-Ala]-N-(2Nal)-Lys(DOTA)-(Ala)-C(3)-W-P-CONH2] (Ac-WT[Gly(4-THP)]C[Ala(piperidin-4-yl)]N[2Nal][dK](DOTA)ACWP-NH2; disulfide 4-10)
12 | < 1 | CC(=O)N[C@@H](Cc1c[nH]c2ccccc12)C(=O)N[C@H](C(=O)N[C@H](C(=O)N[C@H]1CSCSC[C@@H](C(=O)N[C@@H](Cc2c[nH]c3ccccc23)C(=O)N2CCC[C@H]2C(N)=O)NC(=O)[C@H]([C@@H](C)O)NC(=O)[C@H](CCCCNC(=O)CN2CCN(CC(=O)O)CCN(CC(=O)O)CCN(CC(=O)O)CC2)NC(=O)[C@H](Cc2ccc3ccccc3c2)NC(=O)[C@H](CC(N)=O)NC(=O)[C@H](CC2CCNCC2)NC1=O)C1CCCCC1)[C@@H](C)O [compound 399, Ac-W-T-(Chg)-C(1)-[3-(4-piperidinyl)-Ala]-N-(2Nal)-Lys(DOTA)-(Thr)-C(1)-W-P-CONH2] (Ac-WT[Chg]C[Ala(piperidin-4-yl)]N[2Nal]K(DOTA)TCWP-NH2; linker 4-10 via CH2)
13 | 1 to 10 | CCC(CC)[C@H](NC(=O)[C@@H](NC(=O)[C@H](Cc1c[nH]c2ccccc12)NC(C)=O)[C@@H](C)O)C(=O)N[C@H]1CSSC[C@@H](C(=O)N[C@@H](Cc2c[nH]c3ccccc23)C(=O)N2CCC[C@H]2C(N)=O)NC(=O)[C@H](CC(=O)O)NC(=O)[C@H](Cc2cnc[nH]2)NC(=O)[C@H](Cc2c[nH]c3ccccc23)NC(=O)[C@H](CC(N)=O)NC(=O)[C@H](CC(N)=O)NC1=O [compound 337, Ac-W-T-(Env)-C(3)-N-N-W-H-D-C(3)-W-P-CONH2] (Ac-WT[Nva(3-Et)]CNNWHDCWP-NH2; disulfide 4-10)
